From patent publication US7244438B2, “Uses for polycationic compounds” (Intercell AG, priority 2001, dated 2007)
Where no end group is shown, it is not given here.

What was measured:
[1] = system: human dendritic cells; assay: Polyinosinic-polycytidylic acid-induced cytokine production by human dendritic cells; type: cell-based; settings: human dendritic cells in vitro
[2] = system: mouse bone marrow-derived CD11c+ dendritic cells; assay: Cytokine production by dendritic cells incubated with poly-L-arginine and/or CpG-ODN (example 5); type: cell-based; settings: CD11c+ dendritic cells incubated in vitro
Experimental: In parallel, in vitro studies were performed to clarify whether the complexation of CpG-ODN by poly-L-arginine can also directly influence the stimulation of mouse bone marrow-derived CD11c^+ dendritic cells by CpG-ODN concerning the production of TNF-α and IL-6. For this purpose, CD11c^+ dendritic cells were incubated either with poly-L-arginine, CpG-ODN or the combination of poly-L-arginine and CpG-ODN (example 5). The levels of TNF-a and IL-6 were determined in the supernatants derived from these cultures.

[3] = mouse, in vivo, sc
Experimental: In order to investigate this assumption, fluorescence-labeled compounds were injected together subcutaneously into the flank of mice. At different time points after this treatment, injection sites were inspected for the presence of labeled compounds.
Experimental Groups (1 Mouse/Group 1/Indicated Time Point, 3 Mice/Group 2–4/time Point) • 1. untreated • 2. TRP-2181-188-FITC • 3. pR60-TRITC • 4. CpG-ODN1668-Cy5 • 5. TRP-2-FITC+pR60-TRITC • 6. TRP-2181-188-FITC+CpG-ODN-Cy5 • 7. pR60-TRITC+CpG-ODN 1668-Cy5 • 8. TRP-2 181-188-FITC+pR 60-TRITC+CpG-ODN 1668-Cy5
On day 0 mice were injected subcutaneously into the right flank with a total volume of 100 μl containing the above mentioned compounds. Animals were sacrificed at day 4 after injection and photos were taken from the injection sites (FIG. 3).

Substance	polyinosinic-polycytidylic acid-induced production of pro-inflammatory cytokines [1]	IL-6 in culture supernatants [2]	TNF-α in culture supernatants [2]	TRP-2 peptide-FITC detectable at the injection site [3]
Poly-L-Arginine	inhibits	neither TNF-α nor IL-6 were detectable	neither TNF-α nor IL-6 were detectable	
TRP-2181-188-peptide-FITC: FITC-labeled TRP-2-Peptide (VYDFFVWL), MHC class I (H-2Kb)-restricted epitope of mouse tyrosinase related protein-2 (not fully specified (N-terminus); also: FITC label; UniProt P29812 181-188, looked up, fragment)				not detectable at the injection site at day 4
